The text below walks through data of ChEMBL document CHEMBL1909046, “DrugMatrix in vitro pharmacology data”.

Usually IC50 stands for the concentration at which inhibition is half-maximal. One may read the Ki as a dissociation constant, usually derived from enzyme kinetics or from competition with a known ligand.

The nature of data set [1]: DRUGMATRIX: GABAA, Chloride Channel, TBOB radioligand binding (ligand: [3H] TBOB). The note with it: Not Active = under 50% inhibition at 10 µM. Format: cell membranes, Rattus norvegicus, Wistar, Cerebral cortex, Membrane.
The nature of data set [2]: DRUGMATRIX: Potassium Channel [KATP] radioligand binding (ligand: [3H] Glyburide). The note with it: hit-t15; Not Active = under 50% inhibition at 10 µM. The class given is cell membranes, Membrane.
Another data set has as its target Mu-type opioid receptor (Homo sapiens, UniProt P35372). Description: DRUGMATRIX: Opiate mu (OP3, MOP) radioligand binding (ligand: [3H] Diprenorphine). Format: cell membranes, CHO-K1, Membrane. The note with it: cho-k1; Not Active = under 50% inhibition at 10 µM.
Another data set addresses Cytochrome P450 2E1 (Homo sapiens, UniProt P05181). The note with it: bti-tn-5b1-4.
In data set [3] the target is T1, Alpha-2C adrenergic receptor (Homo sapiens, UniProt P18825).
T1 sequence (P18825 whole entry): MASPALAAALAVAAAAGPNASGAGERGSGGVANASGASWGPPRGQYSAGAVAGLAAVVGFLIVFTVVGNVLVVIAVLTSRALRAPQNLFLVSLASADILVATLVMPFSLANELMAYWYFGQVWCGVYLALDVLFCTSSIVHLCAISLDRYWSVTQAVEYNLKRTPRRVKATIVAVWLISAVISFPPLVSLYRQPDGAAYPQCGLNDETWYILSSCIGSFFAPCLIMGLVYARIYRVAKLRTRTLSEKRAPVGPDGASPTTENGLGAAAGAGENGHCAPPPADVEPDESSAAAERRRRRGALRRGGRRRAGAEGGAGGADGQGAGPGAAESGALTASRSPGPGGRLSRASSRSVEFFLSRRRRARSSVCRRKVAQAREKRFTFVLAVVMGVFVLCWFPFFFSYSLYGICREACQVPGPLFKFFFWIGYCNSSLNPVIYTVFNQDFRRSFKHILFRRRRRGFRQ
The experiment in a line: DRUGMATRIX: Adrenergic Alpha-2C radioligand binding (ligand: [3H] MK-912). Format: cell membranes, Sf9, Membrane. The conditions noted are these: for Ki: read-out: Ki.

Data set [4] addresses Protein phosphatase 3 catalytic subunit alpha (Homo sapiens, UniProt Q08209). Details: species or system Escherichia coli.
The target of a further data set is Glycine receptor (Rattus norvegicus, UniProt P22771+P24524+P07727+P20781). Format: cell membranes, Wistar, Spinal cord, Membrane. Further: in other assays of this panel Not Active means under 50% inhibition at 10 µM.
In another data set the target is T2, Cytochrome P450 2A6 (Homo sapiens, UniProt P11509). Further: in other assays of this panel Not Active means under 50% inhibition at 10 µM.
T2 sequence (P11509 whole entry): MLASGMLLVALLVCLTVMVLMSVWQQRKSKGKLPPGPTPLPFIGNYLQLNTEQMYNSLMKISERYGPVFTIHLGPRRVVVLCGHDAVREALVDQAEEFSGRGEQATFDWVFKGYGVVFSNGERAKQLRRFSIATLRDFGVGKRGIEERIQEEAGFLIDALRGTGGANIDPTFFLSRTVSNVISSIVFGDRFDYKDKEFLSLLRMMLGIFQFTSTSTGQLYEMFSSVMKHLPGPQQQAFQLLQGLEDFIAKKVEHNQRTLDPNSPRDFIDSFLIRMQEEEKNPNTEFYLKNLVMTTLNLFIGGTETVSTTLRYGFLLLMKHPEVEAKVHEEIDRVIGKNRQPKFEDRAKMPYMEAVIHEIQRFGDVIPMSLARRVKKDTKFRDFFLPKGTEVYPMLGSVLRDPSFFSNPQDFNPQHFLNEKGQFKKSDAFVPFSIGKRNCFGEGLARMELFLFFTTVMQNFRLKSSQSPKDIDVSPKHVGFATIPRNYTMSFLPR
The note with it: bti-tn-5b1-4.

Cytochrome P450 2E1, sequence (P05181 whole entry): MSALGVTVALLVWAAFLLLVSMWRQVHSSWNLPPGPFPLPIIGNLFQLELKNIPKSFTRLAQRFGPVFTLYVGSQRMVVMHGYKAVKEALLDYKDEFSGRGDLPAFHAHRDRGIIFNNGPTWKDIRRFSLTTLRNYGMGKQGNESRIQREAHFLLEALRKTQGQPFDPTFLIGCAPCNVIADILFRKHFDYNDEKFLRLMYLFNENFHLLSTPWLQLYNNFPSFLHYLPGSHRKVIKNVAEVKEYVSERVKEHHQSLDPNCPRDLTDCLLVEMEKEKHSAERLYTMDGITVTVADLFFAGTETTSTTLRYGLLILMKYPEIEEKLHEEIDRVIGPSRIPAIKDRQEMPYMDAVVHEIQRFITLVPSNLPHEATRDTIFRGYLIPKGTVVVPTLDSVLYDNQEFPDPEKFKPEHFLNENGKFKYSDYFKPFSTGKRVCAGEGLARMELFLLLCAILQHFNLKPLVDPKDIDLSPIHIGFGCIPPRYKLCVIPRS
Mu-type opioid receptor, sequence (P35372 whole entry): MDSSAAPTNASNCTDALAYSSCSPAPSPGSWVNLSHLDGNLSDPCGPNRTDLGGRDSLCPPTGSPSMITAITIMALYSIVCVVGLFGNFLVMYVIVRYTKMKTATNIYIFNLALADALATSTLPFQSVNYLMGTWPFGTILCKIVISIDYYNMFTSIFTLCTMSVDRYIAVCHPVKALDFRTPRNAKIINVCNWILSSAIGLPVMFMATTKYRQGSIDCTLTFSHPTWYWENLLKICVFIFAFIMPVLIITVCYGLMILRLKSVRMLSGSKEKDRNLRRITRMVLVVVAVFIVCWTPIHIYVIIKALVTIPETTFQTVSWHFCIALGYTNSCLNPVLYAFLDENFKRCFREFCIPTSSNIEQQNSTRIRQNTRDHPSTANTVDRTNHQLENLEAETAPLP

Consider `CCn1cc(C(=O)O)c(=O)c2cc(F)c(N3CCNCC3)cc21` [NORFLOXACIN], for which the IC50 entry (in data set [1]; in data set [2]; on Mu-type opioid receptor; against Cytochrome P450 2E1; in data set [3] (sf9); in data set [4]) was “Not Active” each time. For the same compound, the IC50 result against Glycine receptor and at Cytochrome P450 2A6 was “Not Active” each time. The Ki result (in data set [1]; in data set [2]; on Cytochrome P450 2E1; on Cytochrome P450 2A6) was “Not Active” throughout.

For the compound `CCCN1C[C@H](CSC)C[C@@H]2c3cccc4[nH]cc(c34)C[C@H]21` [PERGOLIDE], the IC50 result in data set [1] is “Not Active”; in data set [2], “Not Active”; at Mu-type opioid receptor it was “Not Active”; against Cytochrome P450 2E1 it was “Not Active”; in data set [3] it was 1410 nM; in data set [4], “Not Active”. Also, the IC50 entry on Glycine receptor and against Cytochrome P450 2A6 was “Not Active” each time. Also, the inhibition constant (Ki) entry is “Not Active” in data set [1]; “Not Active” in data set [2]; “Not Active” at Cytochrome P450 2E1; 205 nM in data set [3]; “Not Active” on Cytochrome P450 2A6.

`Clc1cccc(Cl)c1NC1=NCCN1` [CLONIDINE]: the IC50 result (in data set [1]; in data set [2]; at Mu-type opioid receptor; against Cytochrome P450 2E1; in data set [3] (sf9); in data set [4]) was “Not Active” in each case. Further, the IC50 result on Glycine receptor and on Cytochrome P450 2A6 was “Not Active” throughout. The Ki entry (in data set [1]; in data set [2]; on Cytochrome P450 2E1; on Cytochrome P450 2A6) was “Not Active” throughout.

For the compound `C=C(C)C1(O)OC(=O)C=C1OC` (stereo unspecified) [PENICILLIC ACID], the IC50 result (in data set [1]; in data set [2]; at Mu-type opioid receptor; on Cytochrome P450 2E1; in data set [3] (sf9); in data set [4]) was “Not Active” throughout. Moreover, the 50% inhibitory concentration (IC50) result at Glycine receptor and on Cytochrome P450 2A6 was “Not Active” throughout. Further, the Ki result (in data set [1]; in data set [2]; on Cytochrome P450 2E1; on Cytochrome P450 2A6) was “Not Active” throughout.

`C[C@H](CS)C(=O)N1CCC[C@H]1C(=O)O` [CAPTOPRIL]: the IC50 result (in data set [1]; in data set [2]; on Mu-type opioid receptor; on Cytochrome P450 2E1; in data set [3] (sf9); in data set [4]) was “Not Active” throughout. For the same compound, the IC50 entry at Glycine receptor and at Cytochrome P450 2A6 was “Not Active” throughout. The Ki entry (in data set [1]; in data set [2]; on Cytochrome P450 2E1; at Cytochrome P450 2A6) was “Not Active” each time.

As for `C[C@H]1O[C@@H](O[C@H]2[C@@H](O)C[C@H](O[C@H]3[C@@H](O)C[C@H](O[C@H]4CC[C@@]5(C)[C@H](CC[C@@H]6[C@@H]5C[C@@H](O)[C@]5(C)[C@@H](C7=CC(=O)OC7)CC[C@]65O)C4)O[C@@H]3C)O[C@@H]2C)C[C@H](O)[C@@H]1O` [DIGOXIN], the IC50 entry (in data set [1]; in data set [2]; on Mu-type opioid receptor; on Cytochrome P450 2E1; in data set [3] (sf9); in data set [4]) was “Not Active” throughout. Besides, the IC50 result against Glycine receptor and against Cytochrome P450 2A6 was “Not Active” in each case. The inhibition constant (Ki) entry (in data set [1]; in data set [2]; on Cytochrome P450 2E1; on Cytochrome P450 2A6) was “Not Active” in each case.

As to `CN(C)C(=O)Oc1cc(OC(=O)N(C)C)cc(C(O)CNC(C)(C)C)c1` (stereo unspecified) [BAMBUTEROL], the IC50 entry (in data set [1]; in data set [2]; on Mu-type opioid receptor; at Cytochrome P450 2E1; in data set [3] (sf9); in data set [4]) was “Not Active” in each case. Also, the IC50 entry at Glycine receptor and against Cytochrome P450 2A6 was “Not Active” each time. For the same compound, the Ki result (in data set [1]; in data set [2]; on Cytochrome P450 2E1; on Cytochrome P450 2A6) was “Not Active” in each case.

On to `CC(C)[C@H]1C(=O)N2CCC[C@H]2[C@]2(O)O[C@](NC(=O)[C@@H]3C=C4c5cccc6[nH]cc(c56)C[C@H]4N(C)C3)(C(C)C)C(=O)N12` [ERGOCORNINE], for which the concentration for half-maximal inhibition (IC50) result in data set [1] was “Not Active”; in data set [2], “Not Active”; on Mu-type opioid receptor, “Not Active”; at Cytochrome P450 2E1 it was “Not Active”; in data set [3] (read-out: IC50), 17 nM; in data set [4] it was “Not Active”. Besides, the IC50 entry on Glycine receptor and at Cytochrome P450 2A6 was “Not Active” in each case. The Ki result in data set [1] was “Not Active”; in data set [2], “Not Active”; on Cytochrome P450 2E1 it was “Not Active”; in data set [3], 2.41 nM; on Cytochrome P450 2A6, “Not Active”.

On to `CN(C)CCCN1c2ccccc2Sc2ccccc21` [PROMAZINE], for which the IC50 entry in data set [1] was “Not Active”; in data set [2], “Not Active”; on Mu-type opioid receptor, “Not Active”; at Cytochrome P450 2E1, “Not Active”; in data set [3] (read-out: IC50) it was 253 nM; in data set [4], “Not Active”. The IC50 entry against Glycine receptor and against Cytochrome P450 2A6 was “Not Active” throughout. The inhibition constant Ki result was “Not Active” in data set [1]; “Not Active” in data set [2]; “Not Active” on Cytochrome P450 2E1; 37 nM in data set [3]; “Not Active” on Cytochrome P450 2A6.

On to `C[C@](N)(Cc1ccc(O)c(O)c1)C(=O)O` [METHYLDOPA], for which the half-inhibitory concentration (IC50) result (in data set [1]; in data set [2]; on Mu-type opioid receptor; on Cytochrome P450 2E1; in data set [3] (sf9); in data set [4]) was “Not Active” in each case. For the same compound, the IC50 result against Glycine receptor and at Cytochrome P450 2A6 was “Not Active” throughout. Besides, the Ki result (in data set [1]; in data set [2]; at Cytochrome P450 2E1; at Cytochrome P450 2A6) was “Not Active” throughout.

For the compound `CC(O)CO` (stereo unspecified) [PROPYLENE GLYCOL], the IC50 result (in data set [1]; in data set [2]; on Mu-type opioid receptor; on Cytochrome P450 2E1; in data set [3] (sf9); in data set [4]) was “Not Active” throughout. In addition, the 50% inhibitory concentration (IC50) entry against Glycine receptor and at Cytochrome P450 2A6 was “Not Active” throughout. Moreover, the Ki result (in data set [1]; in data set [2]; at Cytochrome P450 2E1; at Cytochrome P450 2A6) was “Not Active” in each case.

As for `CCCC1O[C@@H]2C[C@H]3[C@@H]4CCC5=CC(=O)C=C[C@]5(C)[C@H]4[C@@H](O)C[C@]3(C)[C@]2(C(=O)CO)O1` (stereo partly specified) [BUDESONIDE], the half-maximal inhibitory concentration (IC50) result (in data set [1]; in data set [2]; at Mu-type opioid receptor; against Cytochrome P450 2E1; in data set [3] (sf9); in data set [4]) was “Not Active” in each case. For the same compound, the IC50 result at Glycine receptor and at Cytochrome P450 2A6 was “Not Active” each time. The Ki result (in data set [1]; in data set [2]; on Cytochrome P450 2E1; on Cytochrome P450 2A6) was “Not Active” in each case.

Take `CC1Cc2ccccc2N1NC(=O)c1ccc(Cl)c(S(N)(=O)=O)c1` (stereo unspecified) [INDAPAMIDE]: the concentration for half-maximal inhibition (IC50) entry (in data set [1]; in data set [2]; at Mu-type opioid receptor; at Cytochrome P450 2E1; in data set [3] (sf9); in data set [4]) was “Not Active” throughout. Besides, the IC50 result against Glycine receptor and against Cytochrome P450 2A6 was “Not Active” throughout. The inhibition constant Ki result (in data set [1]; in data set [2]; at Cytochrome P450 2E1; at Cytochrome P450 2A6) was “Not Active” throughout.

As for `CCC1(c2ccc(N)cc2)CCC(=O)NC1=O` (stereo unspecified) [AMINOGLUTETHIMIDE], the IC50 entry (in data set [1]; in data set [2]; on Mu-type opioid receptor; at Cytochrome P450 2E1; in data set [3] (sf9); at Glycine receptor) was “Not Active” throughout. Besides, at Cytochrome P450 2A6, the IC50 entry is reported as “Not Active”. The Ki entry (in data set [1]; in data set [2]; on Cytochrome P450 2E1; in data set [4]; on Cytochrome P450 2A6) was “Not Active” in each case.
